Reference: paper PMC3923053, “Effects of Various Phytochemicals on Indoleamine 2,3-Dioxygenase 1 Activity: Galanal Is a Novel, Competitive Inhibitor of the Enzyme” (PLoS ONE, 2014)

Target: T1, Indoleamine 2,3-dioxygenase 1 (IDO1) (Homo sapiens, UniProt P14902)
T1 construct: recombinant human IDO1, N-His-tag, expressed in E. coli
Test: methylene blue/ascorbate assay of purified recombinant IDO1, HPLC; Lineweaver-Burk kinetics
Assay type: biochemical

T1 sequence (P14902 whole entry): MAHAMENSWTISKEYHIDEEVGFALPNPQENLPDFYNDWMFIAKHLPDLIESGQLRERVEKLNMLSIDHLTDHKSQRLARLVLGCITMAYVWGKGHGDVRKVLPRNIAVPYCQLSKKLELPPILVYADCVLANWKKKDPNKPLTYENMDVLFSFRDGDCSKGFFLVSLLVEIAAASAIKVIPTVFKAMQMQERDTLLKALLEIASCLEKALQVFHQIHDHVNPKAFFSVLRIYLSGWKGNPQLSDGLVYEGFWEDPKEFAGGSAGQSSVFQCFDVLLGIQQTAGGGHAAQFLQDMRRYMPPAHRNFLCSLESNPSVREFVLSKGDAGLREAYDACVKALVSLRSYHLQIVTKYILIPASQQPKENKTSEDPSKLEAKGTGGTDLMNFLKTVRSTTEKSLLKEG

IC50: 7.7 µM
Substance: galanal
